Test results reported in patent US11590139B2, “Substituted aminopurine compounds, compositions thereof, and methods of treatment therewith” (Signal Pharmaceuticals, LLC, priority 2014, dated 2023).

tested on: Lox-IMVI melanoma cell line; assay: Lox-IMVI anti-proliferative assay (growth inhibition, Cell Titer-Glo); assay type: cell-based, human; conditions: Homo sapiens; IC50 activity level in the cell-based Lox-IMVI anti-proliferative assay; read-out: Activity
In short: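 Growth inhibition is assessed over 72 h in RPMI + 10% FBS at 0.2% DMSO, with ATP-based luminescence used as the viability measure. IC50 is fitted from normalized dose-response data.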

Q: For `NC(=O)[C@H]1CC[C@@H](n2c(Nc3c(F)cccc3F)nc3cnc(N[C@H]4CCOC[C@@H]4F)nc32)CC1` [Example 247, (1R,4s)-4-(8-(2,6-difluorophenylamino)-2-((3R,4S)-3-fluorotetrahydro-2H-pyran-4-ylamino)-9H-purin-9-yl)cyclohexanecarboxamide], which IC50 is on record?
A: > 1000 nM

Q: For `N#Cc1ccc(Nc2nc3cnc(NC4CCOCC4)nc3n2[C@H]2CC[C@@H](C(N)=O)CC2)c(Cl)c1` [Example 248, (1s,4s)-4-(8-(2-chloro-4-cyanophenylamino)-2-(tetrahydro-2H-pyran-4-ylamino)-9H-purin-9-yl)cyclohexanecarboxamide], which IC50 is on record?
A: 500 to 1000 nM

Q: `NC(=O)[C@H]1CC[C@@H](n2c(Nc3c(F)cc(F)cc3F)nc3cnc(N[C@@H]4CCC[C@H]4O)nc32)CC1` [Example 249, (1S,4s)-4-(2-((1R,2R)-2-hydroxycyclopentylamino)-8-(2,4,6-tnfluorophenylamino)-9H-purin-9-yl)cyclohexanecarboxamide] was tested. Which IC50 did it give?
A: > 1000 nM

Q: Which IC50 does the source give for `NC(=O)[C@H]1CC[C@@H](n2c(Nc3c(F)cccc3Cl)nc3cnc(N[C@@H]4CCC[C@H]4O)nc32)CC1` [Example 250, (1S,4s)-4-(8-(2-chloro-6-fluorophenylamino)-2-((1R,2R)-2-hydroxycyclopentylamino)-9H-purin-9-yl)cyclohexanecarboxamide] here?
A: > 1000 nM

Q: For `NC(=O)[C@H]1CC[C@@H](n2c(Nc3c(F)cccc3F)nc3cnc(N[C@@H]4CCC[C@H]4O)nc32)CC1` [Example 251, (1S,4s)-4-(8-(2,6-difluorophenylamino)-2-((1R,2R)-2-hydroxycyclopentylamino)-9H-purin-9-yl)cyclohexanecarboxamide], which IC50 is on record?
A: > 1000 nM

Q: How did the IC50 turn out when `NC(=O)[C@H]1CC[C@@H](n2c(Nc3c(F)cc(F)cc3Cl)nc3cnc(N[C@@H]4CCC[C@H]4O)nc32)CC1` [Example 252, (1S,4s)-4-(8-(2-chloro-4,6-difluorophenylamino)-2-((1R,2R)-2-hydroxycyclopentylamino)-9H-purin-9-yl)cyclohexanecarboxamide] was run?
A: > 1000 nM

Q: `NC(=O)[C@H]1CC[C@@H](n2c(Nc3c(Cl)cccc3Cl)nc3cnc(N[C@@H]4CCC[C@H]4O)nc32)CC1` [Example 253, (1S,4s)-4-(8-(2,6-dichlorophenylamino)-2-((1R,2R)-2-hydroxycyclopentylamino)-9H-purin-9-yl)cyclohexanecarboxamide] was tested. Which IC50 did it give?
A: > 1000 nM

Q: Which IC50 does the source give for `NC(=O)[C@H]1CC[C@@H](n2c(Nc3c(Cl)cc(Cl)cc3Cl)nc3cnc(N[C@@H]4CCC[C@H]4O)nc32)CC1` [Example 254, (1S,4s)-4-(2-((1R,2R)-2-hydroxycyclopentylamino)-8-(2,4,6-trichlorophenylamino)-9H-purin-9-yl)cyclohexanecarboxamide] here?
A: 500 to 1000 nM

Q: With `NC(=O)[C@H]1CC[C@@H](n2c(Nc3c(F)cc(Cl)cc3Cl)nc3cnc(N[C@@H]4CCC[C@H]4O)nc32)CC1` [Example 255, (1S,4s)-4-(8-(2,4-dichloro-6-fluorophenylamino)-2-((1R,2R)-2-hydroxycyclopentylamino)-9H-purin-9-yl)cyclohexanecarboxamide] as the compound, how does the IC50 read?
A: > 1000 nM

Q: For `NC(=O)[C@H]1CC[C@@H](n2c(Nc3c(Cl)cc(F)cc3Cl)nc3cnc(N[C@@H]4CCC[C@H]4O)nc32)CC1` [Example 256, (1S,4s)-4-(8-(2,6-dichloro-4-fluorophenylamino)-2-((1R,2R)-2-hydroxycyclopentylamino)-9H-purin-9-yl)cyclohexanecarboxamide], which IC50 is on record?
A: > 1000 nM

Q: For `NC(=O)[C@H]1CC[C@@H](n2c(Nc3c(F)cc(Cl)cc3F)nc3cnc(N[C@@H]4CCC[C@H]4O)nc32)CC1` [Example 257, (1S,4s)-4-(8-(4-chloro-2,6-difluorophenylamino)-2-((1R,2R)-2-hydroxycyclopentylamino)-9H-purin-9-yl)cyclohexanecarboxamide], which IC50 is on record?
A: 500 to 1000 nM

Q: `NC(=O)[C@H]1CC[C@@H](n2c(Nc3ccc(Cl)c(F)c3F)nc3cnc(N[C@@H]4CCC[C@H]4O)nc32)CC1` [Example 258, (1S,4s)-4-(8-(4-chloro-2,3-difluorophenylamino)-2-((1R,2R)-2-hydroxycyclopentylamino)-9H-purin-9-yl)cyclohexanecarboxamide] was tested. Which IC50 did it give?
A: > 1000 nM

Q: How did the IC50 turn out when `NC(=O)[C@H]1CC[C@@H](n2c(Nc3c(F)ccc(Cl)c3F)nc3cnc(N[C@@H]4CCC[C@H]4O)nc32)CC1` [Example 259, (1S,4s)-4-(8-(3-chloro-2,6-difluorophenylamino)-2-((1R,2R)-2-hydroxycyclopentylamino)-9H-purin-9-yl)cyclohexanecarboxamide] was run?
A: > 1000 nM

Q: With `NC(=O)[C@H]1CC[C@@H](n2c(Nc3c(F)ccc(F)c3F)nc3cnc(N[C@@H]4CCC[C@H]4O)nc32)CC1` [Example 260, (1S,4s)-4-(2-((1R,2R)-2-hydroxycyclopentylamino)-8-(2,3,6-trifluorophenylamino)-9H-purin-9-yl)cyclohexanecarboxamide] as the compound, how does the IC50 read?
A: > 1000 nM

Q: For `NC(=O)[C@H]1CC[C@@H](n2c(Nc3ccc(Cl)cc3Cl)nc3cnc(N[C@@H]4CCC[C@H]4O)nc32)CC1` [Example 261, (1S,4s)-4-(8-(2,4-dichlorophenylamino)-2-((1R,2R)-2-hydroxycyclopentylamino)-9H-purin-9-yl)cyclohexanecarboxamide], which IC50 is on record?
A: > 1000 nM

Q: `NC(=O)[C@H]1CC[C@@H](n2c(Nc3cc(Cl)ccc3F)nc3cnc(N[C@@H]4CCC[C@H]4O)nc32)CC1` [Example 262, (1S,4s)-4-(8-(5-chloro-2-fluorophenylamino)-2-((1R,2R)-2-hydroxycyclopentylamino)-9H-purin-9-yl)cyclohexanecarboxamide] was tested. Which IC50 did it give?
A: > 1000 nM

Q: `NC(=O)[C@H]1CC[C@@H](n2c(Nc3cccc(Cl)c3F)nc3cnc(N[C@@H]4CCC[C@H]4O)nc32)CC1` [Example 263, (1S,4s)-4-(8-(3-chloro-2-fluorophenylamino)-2-((1R,2R)-2-hydroxycyclopentylamino)-9H-purin-9-yl)cyclohexanecarboxamide] was tested. Which IC50 did it give?
A: > 1000 nM

Q: With `NC(=O)[C@H]1CC[C@@H](n2c(Nc3ccc(F)c(F)c3F)nc3cnc(N[C@@H]4CCC[C@H]4O)nc32)CC1` [Example 264, (1S,4s)-4-(2-((1R,2R)-2-hydroxycyclopentylamino)-8-(2,3,4-trifluorophenylamino)-9H-purin-9-yl)cyclohexanecarboxamide] as the compound, how does the IC50 read?
A: > 1000 nM

Q: How did the IC50 turn out when `NC(=O)[C@H]1CC[C@@H](n2c(Nc3cc(F)c(Cl)cc3F)nc3cnc(N[C@@H]4CCC[C@H]4O)nc32)CC1` [Example 265, (1S,4s)-4-(8-(4-chloro-2,5-difluorophenylamino)-2-((1R,2R)-2-hydroxycyclopentylamino)-9H-purin-9-yl)cyclohexanecarboxamide] was run?
A: > 1000 nM

Q: How did the IC50 turn out when `NC(=O)[C@H]1CC[C@@H](n2c(Nc3c(F)cc(F)cc3F)nc3cnc(N[C@H]4CCC[C@@H]4O)nc32)CC1` [Example 266, (1R,4s)-4-(2-((1S,2S)-2-hydroxycyclopentylamino)-8-(2,4,6-trifluorophenylamino)-9H-purin-9-yl)cyclohexanecarboxamide] was run?
A: > 1000 nM

Q: `NC(=O)[C@H]1CC[C@@H](n2c(Nc3c(F)cccc3F)nc3cnc(N[C@H]4CCC[C@@H]4O)nc32)CC1` [Example 267, (1R,4s)-4-(8-(2,6-difluorophenylamino)-2-((1S,2S)-2-hydroxycyclopentylamino)-9H-purin-9-yl)cyclohexanecarboxamide] was tested. Which IC50 did it give?
A: > 1000 nM

Q: With `NC(=O)[C@H]1CC[C@@H](n2c(Nc3c(Cl)cccc3Cl)nc3cnc(N[C@H]4CCC[C@@H]4O)nc32)CC1` [Example 268, (1R,4s)-4-(8-(2,6-dichlorophenylamino)-2-((1S,2S)-2-hydroxycyclopentylamino)-9H-purin-9-yl)cyclohexanecarboxamide] as the compound, how does the IC50 read?
A: > 1000 nM

Q: How did the IC50 turn out when `NC(=O)[C@H]1CC[C@@H](n2c(Nc3c(F)cc(Cl)cc3F)nc3cnc(N[C@H]4CCC[C@@H]4O)nc32)CC1` [Example 269, (1R,4s)-4-(8-(4-chloro-2,6-difluorophenylamino)-2-((1S,2S)-2-hydroxycyclopentylamino)-9H-purin-9-yl)cyclohexanecarboxamide] was run?
A: > 1000 nM

Q: How did the IC50 turn out when `NC(=O)[C@H]1CC[C@@H](n2c(Nc3c(Cl)cc(Cl)cc3Cl)nc3cnc(N[C@H]4CCC[C@@H]4O)nc32)CC1` [Example 270, (1R,4s)-4-(2-((1S,2S)-2-hydroxycyclopentylamino)-8-(2,4,6-trichlorophenylamino)-9H-purin-9-yl)cyclohexanecarboxamide] was run?
A: > 1000 nM

Q: `NC(=O)[C@H]1CC[C@@H](n2c(Nc3c(F)cc(Cl)cc3Cl)nc3cnc(N[C@H]4CCC[C@@H]4O)nc32)CC1` [Example 271, (1R,4s)-4-(8-(2,4-dichloro-6-fluorophenylamino)-2-((1S,2S)-2-hydroxycyclopentylamino)-9H-purin-9-yl)cyclohexanecarboxamide] was tested. Which IC50 did it give?
A: 500 to 1000 nM

Q: For `NC(=O)[C@H]1CC[C@@H](n2c(Nc3c(Cl)cc(F)cc3Cl)nc3cnc(N[C@H]4CCC[C@@H]4O)nc32)CC1` [Example 272, (1R,4s)-4-(8-(2,6-dichloro-4-fluorophenylamino)-2-((1S,2S)-2-hydroxycyclopentylamino)-9H-purin-9-yl)cyclohexanecarboxamide], which IC50 is on record?
A: > 1000 nM

Q: `NC(=O)[C@H]1CC[C@@H](n2c(Nc3c(F)ccc(Cl)c3F)nc3cnc(N[C@H]4CCC[C@@H]4O)nc32)CC1` [Example 273, (1R,4s)-4-(8-(3-chloro-2,6-difluorophenylamino)-2-((1S,2S)-2-hydroxycyclopentylamino)-9H-purin-9-yl)cyclohexanecarboxamide] was tested. Which IC50 did it give?
A: > 1000 nM

Q: How did the IC50 turn out when `NC(=O)[C@H]1CC[C@@H](n2c(Nc3c(Cl)cc(Cl)cc3Cl)nc3cnc(N[C@@H]4CCOC[C@H]4F)nc32)CC1` [Example 274, (1S,4s)-4-(2-((3S,4R)-3-fluorotetrahydro-2H-pyran-4-ylamino)-8-(2,4,6-trichlorophenylamino)-9H-purin-9-yl)cyclohexanecarboxamide] was run?
A: < 250 nM

Q: For `NC(=O)[C@H]1CC[C@@H](n2c(Nc3c(F)cccc3F)nc3cnc(N[C@@H]4CCOC[C@H]4F)nc32)CC1` [Example 275, (1S,4s)-4-(8-(2,6-difluorophenylamino)-2-((3S,4R)-3-fluorotetrahydro-2H-pyran-4-ylamino)-9H-purin-9-yl)cyclohexanecarboxamide], which IC50 is on record?
A: 250 to 500 nM
